Laboratory results from patent publication US10800726B2, “Rexinoid compounds and methods of using rexinoid compounds for treating metabolic disorders and cancer” (THE UAB RESEARCH FOUNDATION, priority 2014, dated 2020).

How the values were obtained:
[1] = system: estrogen-negative mammary cancers; experiment: DMBA-induced mammary carcinogenesis in transgenic erbB2+/− mice; format: in vivo; conditions: orally administered, female transgenic erbB2+/− mice, vs control mice, FIG. 1
Source text: FIG. 1 is a graph showing the efficacy of 9-cis-UAB30, TARGRETIN, Compound UAB125, and Compound UAB126 in preventing the formation of mammary cancers in ErbB2^+/− female mice. The first bar represents the controls for 9-cis-UAB30 and TARGRETIN. The fourth bar represents the controls for UAB125 and UAB126.
Mammary carcinogenesis was induced in female, transgenic erbB2^+/− mice using 7,12-Dimethylbenz[a]anthracene (DMBA). The mice were orally administered 9-cis-UAB30 (a tissue selective rexinoid), TARGRETIN® (Valeant Pharmaceuticals, West Laurel, Calif.) (i.e., bexarotene, which is a potent RXR agonist), UAB125, or UAB126. The control mice were not administered any compounds. […] Specifically, UAB125 and UAB126 prevented the formation of 68% and 79%, respectively, of the estrogen-negative mammary cancers, while 9-cis-UAB30 and TARGRETIN® prevented only 54% and 65%, respectively.

[2] = High fat diet-induced obesity: body weight, body composition (QMR), food intake; format: in vivo, C57BL/6J mice
Source text: (§1) Twelve C57BL/6J mice were randomly divided into two groups, namely high fat diet (HFD) (60% of calories from fat) fed with or without Compound UAB126 (1.5 g/kg food) for 10 weeks.
(§2) Also, fasting glucose levels in mice fed HFD with Compound UAB126 were lower than mice fed HFD (FIG. 5). […] Food intake was not different between the 2 groups.

[3] = Glucose tolerance, insulin sensitivity and fasting glucose in high fat diet fed mice; format: in vivo, C57BL/6J mice; conditions: HFD with compound
Source text: as §1, §2

[4] = Serum triglyceride, cholesterol and free fatty acids in high fat diet fed mice; format: in vivo, C57BL/6J mice
Source text: as §1
Previously developed rexinoids have the adverse side effect of elevating serum triglyceride (TG) level. […] Thus, Compound UAB126 can regulate lipid metabolism.

[5] = QMR, normalized by body weight, FIG. 6B
[6] = QMR, without normalization, FIG. 6A

SMILES: Cc1ccc(-c2cccc(C=CC(=O)O)c2)c2ccccc12 (single isomer, unassigned) [UAB125, 3-(3-(4-methyl-1-naphthyl)phenyl)propenoic acid]
- prevention of formation of estrogen-negative mammary cancers [1]: 68%

SMILES: O=C(O)C=Cc1ccc(-c2cccc3ccccc23)cc1 (single isomer, unassigned) [UAB126, 3-(4-(1-naphthyl)phenyl)propenoic acid]
- prevention of formation of estrogen-negative mammary cancers [1]: 79%
- final body weight (avg.) ([2]; HFD (60% of calories from fat) with compound 1.5 g/kg food, 10 weeks, avg. initial 22.5 g, HFD alone: initial 23 g, final 40 g, FIG. 2): 27.8 g
- body weight gain compared to HFD fed mice without compound ([2]; HFD with compound 1.5 g/kg food, 10 weeks, FIG. 2): gained less body weight
- fat mass normalized by body weight, compared to HFD fed mice [2, 5]: less fat mass
- lean mass normalized by body weight, compared to HFD fed mice [2, 5]: more lean mass
- fat mass [2, 6]: markedly reduced
- lean mass [2, 6]: slightly reduced
- glucose tolerance vs mice fed HFD alone ([3]; FIG. 3): more glucose tolerant
- insulin sensitivity vs mice fed HFD alone ([3]; FIG. 4): insulin sensitive
- fasting glucose levels vs mice fed HFD ([3]; FIG. 5): lower
- serum triglyceride levels ([4]; HFD with compound vs HFD, FIG. 7): significantly reduced
- serum cholesterol ([4]; compared to HFD vehicle treated mice, FIG. 8A): significantly decreased
- serum free fatty acids (FFA) ([4]; compared to HFD vehicle treated mice, FIG. 8B): significantly decreased

SMILES: CC(=C/C=C/C(C)=C/C(=O)O)/C=C1\CCCc2ccccc21 [Compound 9-cis-UAB30, reference compound]
- prevention of formation of estrogen-negative mammary cancers [1]: 54%

SMILES: C=C(c1ccc(C(=O)O)cc1)c1cc2c(cc1C)C(C)(C)CCC2(C)C [TARGRETIN, bexarotene, reference compound]
- prevention of formation of estrogen-negative mammary cancers [1]: 65%
